Values belong to the compound of their own block, whether it stands above or below them.
Tests used:
COX-2 protein expression = COX-2 protein expression in LPS-treated macrophages (Western blot); assay type: cell-based, C57BL/6J mice; conditions: 10 µM for compounds 1, 7, 9, 50 µM for others, LPS 24 h
Protocol: Figure 4 Effects of the fluorinated benzofuran and dihydrobenzofuran on COX-2 and NOS2 protein expressions. COX-2 and NOS2 protein expressions were assessed in macrophages incubated with only 10 µM for compounds 1, 7, and 9, and 50 µM for the other compounds, for 30 min prior to the addition of 10 ng/mL LPS for 24 h. β-actin was used as a loading control, and densitometric analysis was performed using ImageJ software (NIH, MA). Data are expressed as fold of LPS-treated macrophages and represented as mean ± SEM of 4 different experiments; * p < 0.05 versus LPS (one-way ANOVA followed by Dunnett’s test).
Macrophages were incubated with the compounds for 30 min prior to the addition of 10 ng/mL LPS for 24 h. Protein levels for COX-2 and NOS2 were detected in LPS-stimulated macrophages. As previously described, 10 µg of total protein was assessed. The primary antibodies were developed and characterized as previously described: for COX-2, mouse monoclonal antibody anti-COX-2 (clone COX-214, 1/5000); for NOS2, rabbit polyclonal antibody anti-NOS2 (dilution1/2000 [33]). Antibodies anti-phospho-NF-κB (3033S), phospho-IκBα (9246S), and total IκBα (4814S) were from Cell Signaling Technologies (Danvers, MA, USA). Total NF-κB C-20 (sc-372) was from Santa Cruz Biotechnologies (Dallas, TX, USA), and mouse β-actin (dilution 1/10,000) (Sigma-Aldrich, A5441). Clarity™ western ECL substrate (Bio-Rad Laboratories 10-5061) was used according to the manufacturer’s instructions to reveal positive bands visualized using Bio-Rad ChemiDoc. For Bcl-2 and cleaved PARP-1, HCT116 cells were plated in 6-well plates (200,000 cells per well) for 24 h, and treated with compounds 1 and 2 at 10, 25, and 50 µM for 72 h. Supernatants and cells were collected and lysed using RIPA lysis buffer containing inhibitors of protease. Western blot of Bcl-2 and cleaved PARP-1 was performed using 25 µg of total protein with a rabbit polyclonal antibody anti-Bcl-2 (1/500) (Santa Cruz Biotechnology, sc-492), rabbit polyclonal antibody anti-PARP-1 (1/1000) (Santa Cruz Biotechnology, sc-7150), and mouse anti-β-actin (dilution 1/10,000) (Sigma-Aldrich, A5441).
Densitometric analyses were performed using ImageJ software (NIH, MA, USA). The ratio of the different analyzed bands to β-actin was determined and data are represented as fold change compared to the LPS-treated cells. Percentage of viable cells for proliferation assay was determined as percentage to control (non-treated cells). For TUNEL assay, apoptotic cells were quantified, and results were expressed as percentage to positive cells (cleaved DNA) compared to control (non-treated cells). Statistical analysis was performed using one-way ANOVA, followed by Dunnett’s multiple comparisons test using GraphPad Prism software. Differences were considered significant when p < 0.05.

IL-6 mRNA = assay: LPS-dependent IL-6 mRNA in THP-1-derived macrophages (RT-PCR); assay type: cell-based, human; conditions: 50 µM, 10 ng/ml LPS 6 h
Protocol: F i g u re S3: Eff ect of benzofuran compounds on the lev els of LP S -dependent mRNA of CCL2 and IL-6 in THP-1 –deriv ed macrophages. Human-monoc yti c cell l ine-THP-1 wer e treat ed with PMA (25 nM for 48 hours) th en in cub ated with 50 μM compounds for 30 minutes b efo re the addit ion of 10 ng/ml LP S fo r 6 hours. Gene ex pression of IL6 and CCL2 were measur ed by RT-PCR and the v alu es wer e nor mal ized to GAPDH. Results represent means ± SEM by one way ANOVA followed by Dunnett test.

[1] = Toxicity on macrophages (BMDM), WST-1 assay; assay type: cell-based, C57BL/6J mice; conditions: C57BL/6J, mouse, bone marrow-derived macrophages (BMDM), read-out: macrophage viability
Protocol: WST-1 assay (Sigma-Aldrich, 5015944001) was used to determine the toxicity of the synthesized compounds on BMDM and HCT116 (ATCC, CCL-247), kindly provided by Dr. Nadine Darwiche, Department of Biochemistry and Molecular Genetics, American University of Beirut, Lebanon. Briefly, macrophages (50,000 cells per well) and HCT116 (20,000 cells per well) were plated in a 96-well plate in RPMI 1640 culture medium containing 10% fetal bovine serum (FBS) and grown for 24 h. Cells (in triplicates) were treated with 10 or 50 μM of the compounds for macrophages, and 50 or 100 μM for HCT116. Culture medium without cells and cells without treatment were used as basal and maximal activity, respectively. Results were expressed as percentage of cells without treatment.
F i g u re S1: E ff e c t of fluorin at ed benzofuran derivatives on m acrophages
viabilit y. C ells in cub at ed with 10 and 50 μM of benzofuran d eri vativ es
(compounds 1 to 9) bel onging to groups І, II, III and IV for 24 hours. Cell
viabilit y w as det ermin ed by WST-1 assay. Non-t r eated m acrophages wer e used
as cont rol. Results were shown as mean ± SEM (n=3) . *p< 0.05 comp ar ed to the
vehicle –treated cells (basal), one-way ANOVA followed by Dunnett’s test.
(1 picture or pasted object on this page, not shown here)

COX-1 = biological target: T1, COX-1 (Homo sapiens, UniProt P23219); assay: COX-1 activity: PGE2 from exogenous arachidonic acid in HEK-293 cells overexpressing COX-1; assay type: cell-based; conditions: 10 µM for compounds 1, 7, 9, 50 µM for others; 10 µM arachidonic acid
T1 construct: expressed in transfected cells
T1 sequence (P23219 24-599): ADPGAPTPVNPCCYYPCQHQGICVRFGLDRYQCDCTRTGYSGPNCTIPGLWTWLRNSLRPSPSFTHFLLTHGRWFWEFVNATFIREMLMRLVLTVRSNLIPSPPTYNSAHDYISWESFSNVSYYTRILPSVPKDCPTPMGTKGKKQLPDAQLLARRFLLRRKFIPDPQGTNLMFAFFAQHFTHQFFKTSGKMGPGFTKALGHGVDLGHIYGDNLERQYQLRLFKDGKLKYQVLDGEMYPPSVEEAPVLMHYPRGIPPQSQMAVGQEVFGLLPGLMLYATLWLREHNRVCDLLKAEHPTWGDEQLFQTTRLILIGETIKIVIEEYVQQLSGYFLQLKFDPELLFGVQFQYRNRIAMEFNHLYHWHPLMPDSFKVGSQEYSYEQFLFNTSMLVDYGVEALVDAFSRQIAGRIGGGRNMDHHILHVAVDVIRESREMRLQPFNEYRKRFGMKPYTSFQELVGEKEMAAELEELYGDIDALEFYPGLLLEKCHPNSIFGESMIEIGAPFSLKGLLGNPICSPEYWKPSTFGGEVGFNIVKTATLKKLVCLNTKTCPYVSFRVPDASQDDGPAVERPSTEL
Protocol: Figure 3 Effects of the fluorinated benzofuran and dihydrobenzofuran on COX-1 and COX-2 activities. (A) Illustration for COX-1 activity assay. HEK-293 cells stably overexpressing COX-1 are treated with the nine derivatives of benzofuran at concentrations of only 10 µM for compounds 1, 7, and 9, and 50 µM for the other compounds, 30 min prior to the addition of 10 µM arachidonic acid (AA). […] (B) COX-1 activity. […] Levels of PGE2 were very low in the absence of arachidonic acid (0.04 ± 0.01 ng/mL) and 104.3 ± 16.7 ng/mL for 10 µM AA. (C) Illustration for COX-2 activity determination. Macrophages are treated with 10 µM of aspirin (ASA) for 30 min to block basal COX activity, washed, and treated with 10 ng/mL LPS for 24 h to induce COX-2. Cells are then washed and incubated 30 min with 50 µM of the different compounds prior to the addition of 10 µM of AA. The produced PGE2 mainly reflects COX-2 activity. (D) COX-2 activity. Percentage of LPS-treated cells was calculated, and data are represented as mean ± SEM (n = 4); * p < 0.05 versus AA for COX-1 activity, and versus LPS + ASA + AA for COX-2 activity (one-way ANOVA followed by Dunnett’s test). […] Levels of PGE2 were very low in the absence of arachidonic acid (0.06 ± 0.01 ng/mL) and 71.7 ± 5.7 ng/mL for 10 µM AA.
COX-1 and COX-2 activities were performed as described previously in human embryonic kidney cell line (HEK-293) stably overexpressing COX-1 [19] and in macrophages, respectively. […] For both COX-1 and COX-2 assays, the benzofuran compounds were then added to the cells for 30 min prior to the incubation with 10 µM arachidonic acid for another 30 min. PGE2 was then measured using an enzyme immunoassay, as described previously.
(§1) IL-6, CCL2, nitrite (for NO), and PGE2 concentrations from 3–5 independent experiments were expressed as percentage of LPS alone and as mean ± SEM. COX activity was determined as percentage of PGE2 produced from exogenous arachidonic acid. Curve fitting and calculation of IC50 values were performed using GraphPad Prism (version 9.5.1 Software, La Jolla, CA, USA).

PGE2 = PGE2 release in LPS-treated macrophages (BMDM); assay type: cell-based, C57BL/6J mice; conditions: 10 µM for compounds 1, 7, 9, 50 µM for others, 10 ng/mL LPS 24 h
Protocol: C57BL/6J (10–15 weeks old) male mice were obtained from the animal care facility at the American University of Beirut. All animal procedures were performed following the recommendations of the IACUC (Institutional Animal Care and Use Committee approval 16-09-M379). BMDMs were prepared and characterized as described previously by our group. BMDMs were isolated from C57BL/6J mice by flushing the femur and tibia with RPMI-1640 culture media (Sigma-Aldrich R7388), and cells were collected and centrifuged at 300× g for 5 min. The supernatant was discarded, and the pellet was resuspended in 2 mL red blood lysis 10% (Sigma-Aldrich R7767) medium in PBS and incubated for 5 min at room temperature. After diluting the suspension of cells with 5 mL of RPMI containing 10% FBS and 1% penicillin–streptomycin, cells were centrifuged at 300× g for 5 min, and the cell pellet was resuspended in RPMI media containing 10% FBS supplemented with 15% L929-conditioned medium containing macrophage-colony stimulating factor (M-CSF1) and plated on […]. Cells were allowed to proliferate and differentiate for 5–6 days. Cells were harvested, washed, and allowed to adhere overnight in RPMI containing 10% FBS for treatment. Cells were previously characterized by flow cytometry as macrophages using this method. […] Cells were plated at 0.8 × 10^6 cells per 3.8 cm^2 well [27].
BMDMs were then treated with different concentrations of the benzofuran and dihydrobenzofuran derivatives for 30 min prior to the addition of 10 ng/mL LPS for 24 h. […] The supernatants were assessed for IL-6, PGE2, CCL2, and nitrite, the stable derivative of NO, as described previously.
as §1

Compound: O=C(O)/C=C1/Oc2ccccc2C1(F)F [Compound 4]
effect on LPS-induced COX-2 protein expression (COX-2 protein expression): loss of this inhibitory effect
effect on IL-6 mRNA levels (IL-6 mRNA): to a lesser extent

Compound: COC(=O)C1CC(C)=C(C)CC12Oc1ccc(Br)cc1C2(F)F (stereo not drawn) [Compound 9]
viability at 24 h, 50 µM [1]: 50%

effect on COX-1 activity (COX-1): loss of the inhibitory activity
Compound: COC(=O)CC1(SCCO)Oc2ccc(Br)cc2C1(F)F (stereo not drawn) [Compound 7]
viability at 24 h, 50 µM [1]: 50%
effect on PGE2 production in response to LPS (PGE2): loss of the inhibitory activity

— publication PMC10299677, “Fluorinated Benzofuran and Dihydrobenzofuran as Anti-Inflammatory and Potential Anticancer Agents” (International Journal of Molecular Sciences, 2023)
